One assay has as its system Lactobacillus casei. Briefly: Disc-diffusion agar method, antibacterial effect. Conditions: for growth inhibition: Lactobacillus casei, 48 hours at 30° C.; for effect on growth: lactobacillus Casei, at the concentrations tested (0.5 μg and 2 μg). On the technique in general: Agar diffusion results depend on both activity and mobility in agar.
The subject of the next assay is Bacillus Thuringiensis. The experiment in a line: Disc-diffusion agar method, antibacterial effect. To be noted: for area of inhibited bacterial growth / growth inhibition: 48 hours at 30° C.; for effect on growth: at the concentrations tested (0.5 μg and 2 μg).
The subject of another assay is Staphylococcus Aureus. The experiment in a line: Disc-diffusion agar method, antibacterial effect. To be noted: for growth inhibition: 48 hours at 30° C.; for effect on growth: at the concentrations tested (0.5 μg and 2 μg).
For the next assay, the system named is Escherichia coli. The experiment in a line: Disc-diffusion agar method, antibacterial effect. To be noted: for growth inhibition: 48 hours at 30° C.; for effect on growth: at the concentrations tested (0.5 μg and 2 μg).
In the next assay the test system is Candida albicans. Briefly: Candida albicans biofilm formation with cannabidiol and/or lactobacillus Casei, crystal violet staining. In kind it is cell-based. To be noted: as compared to Candida albicans alone (row 4); incubation 24 hours. How it is done:
A study is performed to evaluate the efficacy of a composition comprising cannabidiol and lactobacillus Casei in treating or preventing an infection by pathogenic microorganisms comprising Candida albicans, via preventing biofilm formation.
RPMI medium supplemented with 1% glucose is introduced into each well of a 24-well plate.
Candida albicans contacted with cannabidiol are added to each well of row 1.
Candida albicans contacted with lactobacillus Casei are added to each well of row 2.
Candida albicans contacted with cannabidiol and lactobacillus Casei are added to each well of row 3.
Candida albicans alone are added to each well of row 4.
After incubation for 24 hours, spent medium and free-floating fungi are removed by gentle aspiration and the wells washed twice with phosphate-buffered saline (PBS, pH 7.4).
The presence of biofilm is quantified by crystal violet staining as described above for Example 3.

Where only a bound is given, the exact number is not on record here.

With `CCCCCc1cc(O)c2c(c1)OC(C)(C)[C@@H]1CCC(C)=C[C@@H]21` [THC, tetrahydrocannabiniol], the growth inhibition entry is listed as “−” with Lactobacillus casei (0.5 μg on disc); “−” in the assay on Lactobacillus casei (2 μg on disc); “+” in the assay on Bacillus Thuringiensis (0.5 μg on disc); “+” in the assay on Bacillus Thuringiensis (2 μg on disc); “−” in the assay with Staphylococcus Aureus (0.5 μg on disc); “−” in the assay on Staphylococcus Aureus (2 μg on disc). For the same compound, the growth inhibition result in the assay on Escherichia coli (0.5 μg on disc) and in the assay on Escherichia coli (2 μg on disc) was “−” throughout. Also, the “effect on growth” value is on record as “no effect” in the assay with Lactobacillus casei, “inhibit growth” in the assay on Bacillus Thuringiensis, “no effect” in the assay on Staphylococcus Aureus and “no effect” in the assay with Escherichia coli. The “area of inhibited bacterial growth” value in the assay with Bacillus Thuringiensis (0.5 μg on disc) is 1 mm; with Bacillus Thuringiensis (2 μg on disc), < 1 mm.

Turning to `C=C(C)[C@@H]1CCC(C)=C[C@H]1c1c(O)cc(CCCCC)cc1O` [CBD, cannabidiol], the growth inhibition result is listed as “−” with Lactobacillus casei (0.5 μg on disc); “−” in the assay with Lactobacillus casei (2 μg on disc); “+” in the assay with Bacillus Thuringiensis (0.5 μg on disc); “+” with Bacillus Thuringiensis (2 μg on disc); “−” with Staphylococcus Aureus (0.5 μg on disc); “−” with Staphylococcus Aureus (2 μg on disc). For the same compound, the growth inhibition entry in the assay on Escherichia coli (0.5 μg on disc) and with Escherichia coli (2 μg on disc) was “−” throughout. The “effect on growth” value in the assay on Lactobacillus casei is “no effect”; in the assay with Bacillus Thuringiensis, “inhibit growth”; with Staphylococcus Aureus, “no effect”; in the assay on Escherichia coli, “no effect”. In addition, the “area of inhibited bacterial growth” value came to 2 mm with Bacillus Thuringiensis (0.5 μg on disc) and 3 mm with Bacillus Thuringiensis (2 μg on disc). Further, the biofilm formation result in the assay with Candida albicans was “significantly inhibited”.

Source of the values: patent US20220362312A1, “CANNABIDIOL-ENHANCED PROBIOTIC COMPOSITIONS AND USES THEREOF FOR TREATMENT OF INFECTIONS” (BUZZELET DEVELOPMENT AND TECHNOLOGIES LTD., priority 2019, published 2022).
